Test results: ChEMBL document CHEMBL3714719, “Regulating agent of GPR34 receptor function” (2010)

Target: Probable G-protein coupled receptor 34 (Homo sapiens, UniProt Q9UPC5)
Assay: Antagonist activity against human lung GPR34 expressed in CHO cells co-expressing Galpha116 assessed as inhibition of lysophosphatidyl serine-induced increase in intracellular calcium level pre-incubated before lysophosphatidyl serine addition and measured after 180 secs by Fluo 3-AM dye based fluorescent assay
Assay type: functional, cell-based

Chain of Probable G-protein coupled receptor 34 (Q9UPC5 whole entry): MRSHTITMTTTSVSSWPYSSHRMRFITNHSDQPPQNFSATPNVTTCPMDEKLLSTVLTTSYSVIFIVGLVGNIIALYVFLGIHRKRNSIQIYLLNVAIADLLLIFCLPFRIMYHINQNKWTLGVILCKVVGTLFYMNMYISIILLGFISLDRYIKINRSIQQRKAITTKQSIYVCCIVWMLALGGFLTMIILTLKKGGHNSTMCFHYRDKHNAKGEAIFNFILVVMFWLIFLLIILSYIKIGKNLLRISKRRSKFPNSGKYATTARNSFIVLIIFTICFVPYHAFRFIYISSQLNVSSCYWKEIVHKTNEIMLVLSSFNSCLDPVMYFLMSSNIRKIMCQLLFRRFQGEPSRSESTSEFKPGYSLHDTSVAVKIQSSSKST

IC50, ≤ 1 µM:
O=C(Cc1ccc(Oc2ccccc2)cc1)NC1(C(=O)O)Cc2ccc(-c3ccc(Cl)cc3)cc2C1 (centres undefined)
O=C(O)C1(NS(=O)(=O)Cc2ccc(F)cc2)Cc2ccc(-c3ccc(Cl)cc3)cc2C1 (centres undefined)
O=C(Cc1ccc(Oc2nc3ccccc3s2)cc1)NC1(C(=O)O)Cc2ccc(-c3ccc(Cl)cc3)cc2C1 (centres undefined)
Cc1ccc(COc2ccc(CC(NC(=O)c3cc4ccc(-c5ccc(Cl)cc5)cc4o3)C(=O)O)cc2)cc1 (centres undefined)
O=C(O)CN(Cc1ccc(OCc2ccc(F)cc2)cc1)C(=O)c1cn2cc(-c3ccc(Cl)cc3)ccc2n1
O=C(Cc1ccc(OCc2ccc(F)cc2)cc1)NC1(C(=O)O)Cc2ccc(-c3ccccc3Cl)cc2C1 (centres undefined)
O=C(NC(Cc1ccc(OCc2ccccc2F)cc1)C(=O)O)c1cn2cc(-c3ccc(Cl)cc3)ccc2n1 (centres undefined)
Cc1c(C(=O)N[C@@H](Cc2ccc(OCc3ccoc3)cc2)C(=O)O)oc2cc(-c3ccc(Cl)cc3)ccc12
O=C(NC(Cc1ccc(OCc2ccc(F)cc2)cc1)C(=O)O)c1nc2cc(-c3ccc(Cl)cc3)ccc2[nH]1 (centres undefined)
O=C(NC(Cc1ccc(OCc2cccc(F)c2)cc1)C(=O)O)c1cn2cc(-c3ccc(Cl)cc3)ccc2n1 (centres undefined)
O=C(NC(Cc1ccc(OCc2ccc(F)cc2)cc1)C(=O)O)c1cn2ccc(C#Cc3ccccc3)cc2n1 (centres undefined)
Nc1ccccc1COc1ccc(CC(=O)NC2(C(=O)O)Cc3ccc(-c4ccc(Cl)cc4)cc3C2)cc1 (centres undefined)
O=C(Cc1ccc(OC2Cc3ccccc3C2)cc1)NC1(C(=O)O)Cc2ccc(-c3ccc(Cl)cc3)cc2C1 (centres undefined)
O=C(N[C@@H](Cc1ccc(OCc2ccsc2)cc1)C(=O)O)c1cn2cc(-c3ccc(Cl)cc3)ccc2n1
O=C(NC(Cc1ccc(OCc2ccccc2)cc1)c1nnn[nH]1)c1cn2nc(-c3ccc(Cl)cc3)ccc2n1 (centres undefined)
Nc1c(C(=O)NC(Cc2ccc(OCc3ccccc3)cc2)C(=O)O)oc2ccc(-c3ccc(Cl)cc3)cc12 (centres undefined)
O=C(NC(Cc1ccc(OCc2ccccc2)cc1)c1nnn[nH]1)c1cn2cc(-c3ccc(Cl)cc3)ccc2n1 (centres undefined)
O=C(Cc1ccc(OCc2ccc(F)cc2)cc1)NC1(C(=O)O)Cc2ccc(-c3ccc(Cl)s3)cc2C1 (centres undefined)
O=C(NC(Cc1ccc(OCc2ccc(F)cc2)cc1)C(=O)O)c1cn2cc(-c3ccc(Cl)cc3)ccc2n1 (centres undefined)
Cc1c(C(=O)N[C@@H](Cc2ccc(OCc3ccsc3)cc2)C(=O)O)oc2cc(-c3ccc(Cl)cc3)ccc12
Cc1c(C(=O)N[C@H](C(=O)O)c2ccc(OCc3ccccc3)cc2)oc2cc(-c3ccc(Cl)cc3)ccc12
Nc1cccc(COc2ccc(CC(=O)NC3(C(=O)O)Cc4ccc(-c5ccc(Cl)cc5)cc4C3)cc2)c1 (centres undefined)
O=C(Cc1ccc(OCc2ccsc2)cc1)NC1(C(=O)O)Cc2ccc(-c3ccc(Cl)cc3)cc2C1 (centres undefined)
Cc1c(C(=O)N[C@@H](Cc2ccc(OCc3ccccc3)cc2)C(=O)O)oc2cc(-c3ccc(Cl)cc3)ccc12
O=C(N[C@@H](Cc1ccc(OCc2ccccc2)cc1)C(=O)O)c1cn2ccc(-c3ccc(Cl)cc3)cc2n1
O=C(Cc1ccc(OCc2ccc(F)cc2)cc1)NC1(C(=O)O)Cc2ccc(-c3cccc(Cl)c3)cc2C1 (centres undefined)
O=C(Cc1ccc(OCc2ccc(F)cc2)cc1)NC1(C(=O)O)Cc2ccc(-c3ccc(Cl)cc3)cc2C1 (centres undefined)
O=C(Cc1ccc(OCc2ccccc2)cc1)NC1(C(=O)O)Cc2ccc(-c3ccc(Cl)cc3)cc2C1 (centres undefined)
O=C(NC(Cc1ccc(OCc2ccccc2)cc1)C(=O)O)c1cn2cc(CCc3ccccc3)ccc2n1 (centres undefined)
